For orientation: IC50 means the point on the concentration scale where inhibition reaches its midpoint.

The record followed here is US20260200921A1, “SUBSTITUTED AMINOPYRIDINE COMPOUNDS AS AKT INHIBITORS” (Atavistik Bio, Inc., priority 2023, published 2026).

Some results are limits rather than exact numbers.

The target in one test is T1, wildtype AKT1 (Homo sapiens, UniProt P31749).
T1 construct: Purified human recombinant kinase full-length wildtype AKT1 was expressed in insect cells; made in house; host or cells: insect cells
The experiment in a line: AKT1 kinase assay, wildtype (TR-FRET, Lance). It is filed as biochemical. The note with it: full-length human recombinant wildtype AKT1 activated by PDPK1; Ulight-CREBtide substrate; either 50 μM ATP or 2 mM ATP. How it is done: AKT1 kinase assay: Inhibitory effects of compounds on wildtype AKT1 were undertaken in a 10-pt dose response kinase activity assay measuring phospho-peptide product formation based on TR-FRET signal as described in the following paragraph.
(§1) Purified human recombinant kinase full-length wildtype AKT1 was expressed in insect cells and activated in vitro by PDPK1. Ulight™-CREBtide (PerkinElmer, catalog number TRF0107) was used as the peptide substrate. The reaction buffer consisted of 50 mM HEPES pH 7.5, 10 mM MgCl2, 0.01% Triton X-100, 0.01% BSA, 2 mM DTT, 0.6 nM AKT1, 50 nM Ulight™-CREBtide and either 50 μM ATP or 2 mM ATP. The compound solution was prepared as 10 mM DMSO stock. For the assay, a 1:3 serial dilution 10-pt dose response of test compounds, in duplicate, for each concentration were dispensed into a 384-well plate (Corning, catalog number 4513). Final DMSO concentration in the assay was 1%. The enzyme mixture (5 μL, 1.2 nM) were added and the mixture was incubated for 15 min at RT prior to the start of the kinase reaction by the addition of 5 μL substrate mixture (100 nM Ulight™-CREBtide). The reaction was stopped after 60 min of incubation at RT by the addition of 10 μL of Detection Mix (PerkinElmer. #CR97-100) consisting of Europium-anti-phospho-CREB (Ser133) (Perkin Elmer, catalog numberTRF0200). Incubation with the detection mix for a further 60 min allowed binding of antibody to the phospho-Ulight™ CREBtide. The fluorescence emissions at 620 nm and 665 nm after excitation at 350 nm was measured using Envision reader. The ratio of the emissions at 665 nm and at 620 nm provided the measure for the amount of phosphorylated CREBtide product of AKT1 kinase activity. To determine the IC50 values, the data was normalized (enzyme reaction without inhibitor=0% inhibition, all other assay components but no enzyme=100% inhibition) and IC50 values were calculated by a 4-parameter fit using an in-house developed protocol.

The target in a further test is T2, AKT1 E17K (Homo sapiens, UniProt P31749, E17K).
T2 construct: Purified human recombinant kinase full-length AKT1 E17K was expressed in insect cells; made in house; host or cells: insect cells
Briefly: AKT1 E17K kinase assay (TR-FRET, Lance). Format: biochemical. The note with it: full-length human recombinant AKT1 E17K activated by PDPK1; Ulight-CREBtide substrate; either 50 μM ATP or 2 mM ATP. How it is done:
AKT1 E17K kinase assay: Inhibitory effects of compounds on AKT1 E17K were undertaken in a 10-pt dose response kinase activity assay measuring phospho-peptide product formation based on TR-FRET signal as described in the following paragraph.
as §1, with “full-length” for “full-length wildtype”, “AKT1 E17K” for “AKT1”, “AKT1 E17K,” for “AKT1,”, “(PerkinElmer,” for “(PerkinElmer.”
A general note: In TR-FRET formats the signal depends on donor and acceptor labels being close together.

T1 sequence (P31749 whole entry): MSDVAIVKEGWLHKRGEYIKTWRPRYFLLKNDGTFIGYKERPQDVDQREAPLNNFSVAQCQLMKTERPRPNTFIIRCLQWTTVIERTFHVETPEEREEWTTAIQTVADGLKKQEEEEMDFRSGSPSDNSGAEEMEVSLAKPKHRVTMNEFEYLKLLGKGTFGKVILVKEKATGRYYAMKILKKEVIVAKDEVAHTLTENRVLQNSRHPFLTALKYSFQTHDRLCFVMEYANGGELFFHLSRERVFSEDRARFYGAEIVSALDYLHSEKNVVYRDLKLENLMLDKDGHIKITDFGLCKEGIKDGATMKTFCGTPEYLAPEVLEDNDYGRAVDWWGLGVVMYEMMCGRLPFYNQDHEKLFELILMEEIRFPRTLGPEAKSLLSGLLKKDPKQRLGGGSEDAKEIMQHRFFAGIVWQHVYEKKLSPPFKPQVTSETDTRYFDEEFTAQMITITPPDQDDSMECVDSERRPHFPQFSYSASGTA
T2 sequence (P31749 whole entry E17K): as the sequence (P31749 whole entry) above, with E17K counted along it

For the compound `Cc1cc(O)n(-c2ccc(C(=O)NCc3ccc(-n4c(-c5cccnc5N)nc5ccc(-c6ccccc6)nc54)cc3)cn2)n1` [Compound I-18, N-(4-(2-(2-aminopyridin-3-yl)-5-phenyl-3H-imidazo[4,5-b]pyridin-3-yl)benzyl)-6-(5-hydroxy-3-methyl-1H-pyrazol-1-yl)nicotinamide], the IC50 at wildtype AKT1 is less than 500 nM; on AKT1 E17K, less than 50 nM.

For the compound `Cc1cc(O)n(-c2ccc(C(=O)NCc3ccc(-n4c(-c5cccnc5N)nc5ccc(-c6ccccc6)nc54)cc3)nc2)n1` [Compound I-19, N-(4-(2-(2-aminopyridin-3-yl)-5-phenyl-3H-imidazo[4,5-b]pyridin-3-yl)benzyl)-5-(5-hydroxy-3-methyl-1H-pyrazol-1-yl)picolinamide], the 50% inhibitory concentration (IC50) on wildtype AKT1 was less than 500 nM; at AKT1 E17K it was 200 to 500 nM.

Turning to `Nc1ncccc1-c1nc2ccc(-c3ccccc3)nc2n1-c1ccc(CNC(=O)c2ccc(-c3nn[nH]n3)cc2)cc1` [Compound I-20, N-(4-(2-(2-aminopyridin-3-yl)-5-phenyl-3H-imidazo[4,5-b]pyridin-3-yl)benzyl)-4-(2H-tetrazol-5-yl)benzamide], the IC50 was less than 500 nM at wildtype AKT1 and less than 50 nM on AKT1 E17K.

In the case of `Nc1ncccc1-c1nc2ccc(-c3ccccc3)nc2n1-c1ccc(CNC(=O)c2cccc(-c3nn[nH]n3)c2)cc1` [Compound I-21, N-(4-(2-(2-aminopyridin-3-yl)-5-phenyl-3H-imidazo[4,5-b]pyridin-3-yl)benzyl)-3-(2H-tetrazol-5-yl)benzamide], the figures for the half-maximal inhibitory concentration (IC50) at wildtype AKT1 and on AKT1 E17K were less than 500 nM and 50 to 200 nM, respectively.

For the compound `Cc1cc(O)n(-c2ccc(C(=O)NCc3ccc(-n4c(-c5cccnc5N)nc5ccc(-c6ccccc6)nc54)nc3)cc2)n1` [Compound I-22, N-[[6-[2-(2-amino-3-pyridyl)-5-phenyl-imidazo[4,5-b]pyridin-3-yl]-3-pyridyl]methyl]-4-(5-hydroxy-3-methyl-pyrazol-1-yl)benzamide], the figures for the IC50 on wildtype AKT1 and at AKT1 E17K were greater than 500 nM and no less than 500 nM, respectively.

Regarding `Cc1cc(O)n(-c2ccc(C(=O)NCc3ccc(-n4c(-c5cccnc5N)nc5cc(-c6ccccc6)cnc54)cc3)cc2)n1` [Compound I-23, N-(4-(2-(2-aminopyridin-3-yl)-6-phenyl-3H-imidazo[4,5-b]pyridin-3-yl)benzyl)-4-(5-hydroxy-3-methyl-1H-pyrazol-1-yl)benzamide], the IC50 was greater than 500 nM on wildtype AKT1 and no less than 500 nM on AKT1 E17K.

Take `Cc1cc(O)n(-c2ccc(C(=O)NCc3ccc(-n4c(-c5cccnc5N)nc5cc(-c6cccnc6)cnc54)cc3)cc2)n1` [Compound I-24, N-[[4-[2-(2-amino-3-pyridyl)-6-(3-pyridyl)imidazo[4,5-b]pyridin-3-yl]phenyl]methyl]-4-(5-hydroxy-3-methyl-pyrazol-1-yl)benzamide]: the IC50 on wildtype AKT1 is less than 500 nM; at AKT1 E17K it was no less than 500 nM.

As to `Cc1cc(O)n(-c2ccc(C(=O)N3CC(c4ccc(-n5c(-c6cccnc6N)nc6ccc(-c7ccccc7)nc65)cc4)C3)cc2)n1` [Compound I-25, (3-(4-(2-(2-aminopyridin-3-yl)-5-phenyl-3H-imidazo[4,5-b]pyridin-3-yl)phenyl)azetidin-1-yl)(4-(5-hydroxy-3-methyl-1H-pyrazol-1-yl)phenyl) methanone], the IC50 on wildtype AKT1 was less than 500 nM; at AKT1 E17K it was less than 50 nM.

With `Nc1ncccc1-c1nc2ccc(-c3ccccc3)nc2n1-c1ccc(C2CN(C(=O)c3ccc(-c4nn[nH]n4)cc3)C2)cc1` [Compound I-26, (4-(2H-tetrazol-5-yl)phenyl)(3-(4-(2-(2-aminopyridin-3-yl)-5-phenyl-3H-imidazo[4,5-b]pyridin-3-yl)phenyl)azetidin-1-yl)methanone], the values for the IC50 at wildtype AKT1 and at AKT1 E17K were less than 500 nM and less than 50 nM, respectively.

`Nc1ncccc1-c1nc2ccc(-c3ccccc3)nc2n1-c1ccc(C2CN(C(=O)c3cccc(-c4nn[nH]n4)c3)C2)cc1` [Compound I-27, (3-(2H-tetrazol-5-yl)phenyl)(3-(4-(2-(2-aminopyridin-3-yl)-5-phenyl-3H-imidazo[4,5-b]pyridin-3-yl)phenyl)azetidin-1-yl)methanone]: the IC50 at wildtype AKT1 was less than 500 nM; on AKT1 E17K, 50 to 200 nM.

Regarding `Cc1cc(O)n(-c2ccc(C(=O)NCc3ccc(-n4c(-c5cccnc5N)nc5ccc(-c6ccccc6)cc54)cc3)cc2)n1` [Compound I-28, N-[[4-[2-(2-amino-3-pyridyl)-6-phenyl-benzimidazol-1-yl]phenyl]methyl]-4-(5-hydroxy-3-methyl-pyrazol-1-yl)benzamide], the IC50 is greater than 500 nM at wildtype AKT1 and no less than 500 nM at AKT1 E17K.

As for `Cn1ncc(-c2ccc(C(=O)NCc3ccc(-n4c(-c5cccnc5N)nc5ccc(-c6ccccc6)nc54)cc3)cc2)c1O` [Compound I-29, N-[[4-[2-(2-amino-3-pyridyl)-5-phenyl-imidazo[4,5-b]pyridin-3-yl]phenyl]methyl]-4-(5-hydroxy-1-methyl-pyrazol-4-yl)benzamide], the IC50 on wildtype AKT1 is less than 500 nM; at AKT1 E17K it was no less than 500 nM.

Consider `Cc1nc(NC(=O)[C@H]2CC[C@H](c3nsc(=O)[nH]3)CC2)ccc1-n1c(-c2cccnc2N)nc2ccc(-c3ccccc3)nc21` [Compound I-38, (1r,4r)-N-(5-(2-(2-aminopyridin-3-yl)-5-phenyl-3H-imidazo[4,5-b]pyridin-3-yl)-6-methylpyridin-2-yl)-4-(5-oxo-4,5-dihydro-1,2,4-thiadiazol-3-yl)cyclohexane-1-carboxamide], for which the IC50 is less than 500 nM at wildtype AKT1 and no less than 500 nM on AKT1 E17K.

Take `Cc1nc(NC(=O)[C@H]2CC[C@H](c3nn[nH]n3)CC2)ccc1-n1c(-c2cccnc2N)nc2ccc(-c3ccccc3)nc21` [Compound I-39, (1r,4r)-N-(5-(2-(2-aminopyridin-3-yl)-5-phenyl-3H-imidazo[4,5-b]pyridin-3-yl)-6-methylpyridin-2-yl)-4-(2H-tetrazol-5-yl)cyclohexane-1-carboxamide]: the IC50 on wildtype AKT1 is less than 500 nM; at AKT1 E17K, 200 to 500 nM.

On to `Cc1nc(NC(=O)c2cccc(-c3nsc(=O)[nH]3)c2)ccc1-n1c(-c2cccnc2N)nc2ccc(-c3ccccc3)nc21` [Compound I-40, N-(5-(2-(2-aminopyridin-3-yl)-5-phenyl-3H-imidazo[4,5-b]pyridin-3-yl)-6-methylpyridin-2-yl)-3-(5-oxo-4,5-dihydro-1,2,4-thiadiazol-3-yl)benzamide], for which the IC50 at wildtype AKT1 is less than 500 nM; at AKT1 E17K, less than 50 nM.

As to `Nc1ncccc1-c1nc2ccc(-c3ccccc3)nc2n1-c1ccc(NC(=O)c2ccc(-c3nsc(=O)[nH]3)cc2F)nc1` [Compound I-41, N-(5-(2-(2-aminopyridin-3-yl)-5-phenyl-3H-imidazo[4,5-b]pyridin-3-yl)pyridin-2-yl)-2-fluoro-4-(5-oxo-4,5-dihydro-1,2,4-thiadiazol-3-yl)benzamide], the IC50 is less than 500 nM at wildtype AKT1 and 50 to 200 nM on AKT1 E17K.
